Measured values reported in patent publication US6737383B1, “Herbicidal oxadiazolidines” (priority 1999, dated 2004).

Experiments:
wild oat = test: Test B pre/postemergence wild oat; assay type: in vivo, Avena fatua; conditions: for Plant response rating, Wild oats: Rate 250 g/ha
In short: (§1)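 Test chemicals in a non-phytotoxic solvent mixture with surfactant were sprayed preemergence onto planted seeds and postemergence onto plants 2 to 18 cm tall (1- to 4-leaf stage). After twelve to sixteen days in a greenhouse, injury was visually rated against untreated controls from 0 (no effect) to 10 (complete control).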

morningglory = test: Test B pre/postemergence morningglory; assay type: in vivo, Ipomoea hederacea
In short: as §1

bamyardgrass = test: Test B flood test barnyardgrass; assay type: in vivo, Echinochloa crus-galli
In short: (§2)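 Each value is a visual injury score relative to controls, with 10 meaning complete control and 0 no effect. Evaluation took place twelve to sixteen days after the 2-leaf-stage plants were treated and kept in the greenhouse.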

crabgrass = test: Test B pre/postemergence crabgrass; assay type: in vivo, Digitaria sanguinalis
In short: as §1

rape = test: Test B pre/postemergence rape; assay type: in vivo, Brassica napus
In short: as §1

giant foxtail = test: Test B pre/postemergence giant foxtail; assay type: in vivo, Setaria faberii
In short: as §1

purple nutsedge = test: Test B pre/postemergence purple nutsedge; assay type: in vivo, Cyperus rotundus
In short: as §1

smallflower flatsedge = test: Test B flood test smallflower flatsedge; assay type: in vivo, Cyperus difformis
In short: as §2

bedstraw = test: Test B pre/postemergence bedstraw; assay type: in vivo, Galium aparine
In short: as §1

rice = test: Test B flood test rice; assay type: in vivo, Oryza sativa
In short: as §2

surinam grass = test: Test B pre/postemergence surinam grass; assay type: in vivo, Brachiaria decumbens
In short: as §1

pigweed = test: Test B pre/postemergence pigweed; assay type: in vivo, Amaranthus retroflexus
In short: as §1

corn = test: Test B pre/postemergence corn; assay type: in vivo, Zea mays
In short: as §1

sugar beet = test: Test B pre/postemergence sugar beet; assay type: in vivo, Beta vulgaris; conditions: for Plant response rating, Sugarbeets: Rate 250 g/ha
In short: as §1

blackgrass = test: Test B pre/postemergence blackgrass; assay type: in vivo, Alopecurus myosuroides
In short: as §1

wheat = test: Test B pre/postemergence wheat; assay type: in vivo, Triticum aestivum; conditions: for Plant response rating, Wheat: Rate 250 g/ha
In short: as §1

[1] = Postemergence, Rate 125 g/ha, scale of 0 to 10 where 0 is no effect and 10 is complete control
[2] = Preemergence, Rate 62 g/ha, scale 0 to 10 (0 no effect, 10 complete control)
[3] = Preemergence, Rate 125 g/ha, 0 is no effect, 10 is complete control
[4] = Preemergence, scale of 0 to 10 where 0 is no effect and 10 is complete control
[5] = Preemergence, Rate 500 g/ha, scale 0 to 10 (0 no effect, 10 complete control)
[6] = Rate 62 g/ha, Postemergence, scale of 0 to 10 where 0 is no effect and 10 is complete control
[7] = Postemergence, scale 0 to 10, 0 is no effect, 10 is complete control
[8] = Rate 500 g/ha, Postemergence, scale 0 to 10, 0 no effect, 10 complete control
[9] = Postemergence, Rate 250 g/ha, scale 0 to 10, 0 no effect, 10 complete control
[10] = Preemergence, Rate 125 g/ha, scale 0 to 10 (0 no effect, 10 complete control)
[11] = Preemergence, Rate 250 g/ha, scale of 0 to 10 where 0 is no effect and 10 is complete control
[12] = Postemergence, Rate 62 g/ha, scale 0 to 10, 0 is no effect, 10 is complete control
[13] = Rate 250 g/ha, headed Pre-emergence (flood test species), scale 0 to 10 (0 no effect, 10 complete control)
[14] = Rate 500 g/ha, headed Pre-emergence (flood test species), scale 0 to 10 (0 no effect, 10 complete control)
[15] = Rate 500 g/ha, listed under Postemergence (flood test species), scale 0 to 10, 0 no effect, 10 complete control
[16] = Rate 1000 g/ha, Pre-emergence (as headed), scale 0 to 10
[17] = Postemergence (flood test species), Rate 125 g/ha, scale of 0 to 10 where 0 is no effect and 10 is complete control
[18] = Rate 62 g/ha, Postemergence section, flood test species, scale of 0 to 10 where 0 is no effect and 10 is complete control
[19] = Rate 250 g/ha, Postemergence (flood test), scale 0 to 10, 0 is no effect, 10 is complete control
[20] = Rate 2000 g/ha, Pre-emergence (as headed), scale 0 to 10
[21] = Rate 125 g/ha, Postemergence, scale 0 to 10, 0 no effect, 10 complete control

SMILES: CCn1c(=O)on(C(=O)N(c2ccccc2)C(C)C)c1=O [Compound 117]
- Wild oats plant response rating (wild oat; [1]): 3
- Wild oats plant response rating (wild oat; [2]): 3
- Wild oats plant response rating (0 to 10 scale) (wild oat; [3]): 6
- Plant response rating, Wild oats (wild oat; [4]): 10
- Wild oats plant response rating (wild oat; [5]): 10
- Wild oats plant response rating (wild oat; [6]): 0
- Plant response rating, Wild oats (wild oat; [7]): 4
- Wild oats plant response rating (wild oat; [8]): 8
- Morningglory plant response rating (morningglory; [1]): 7
- Morningglory plant response rating (morningglory; [9]): 7
- Morningglory plant response rating (morningglory; [2]): 0
- Plant response rating, Morningglory (morningglory; [10]): 0
- Plant response rating, Morningglory (morningglory; [11]): 2
- Morningglory plant response rating (morningglory; [5]): 6
- Morningglory plant response rating (morningglory; [6]): 2
- Morningglory plant response rating (morningglory; [8]): 10
- Barnyardgrass plant response rating (bamyardgrass; [12]): 0
- Barnyardgrass plant response rating (bamyardgrass; Rate 125 g/ha, Postemergence section (flood test species), scale 0 to 10, 0 no effect, 10 complete control): 0
- Barnyardgrass plant response rating (bamyardgrass; [13]): 0
- Plant response rating, Barnyardgrass (bamyardgrass; [14]): 0
- Barnyardgrass plant response rating (bamyardgrass; [15]): 3
- Barnyardgrass plant response rating (bamyardgrass; [16]): 0
- Barnyardgrass plant response rating (bamyardgrass; Rate 2000 g/ha, Pre-emergence (as headed), scale 0 to 10, 0 no effect, 10 complete control): 3
- Barnyardgrass plant response rating (bamyardgrass; flood test, listed under Postemergence, Rate 250 g/ha, scale 0 to 10, 0 no effect, 10 complete control): 2
- Crabgrass plant response rating (crabgrass; [1]): 9
- Crabgrass plant response rating (crabgrass; [9]): 9
- Crabgrass plant response rating (crabgrass; [2]): 9
- Plant response rating, Crabgrass (crabgrass; [10]): 10
- Plant response rating, Crabgrass (crabgrass; [11]): 10
- Crabgrass plant response rating (crabgrass; [5]): 10
- Crabgrass plant response rating (crabgrass; [6]): 9
- Crabgrass plant response rating (crabgrass; [8]): 9
- Rape plant response rating (rape; [1]): 0
- Rape plant response rating (rape; [9]): 2
- Rape plant response rating (rape; [2]): 6
- Plant response rating, Rape (rape; [10]): 10
- Plant response rating, Rape (rape; [11]): 10
- Rape plant response rating (rape; [5]): 10
- Rape plant response rating (rape; [6]): 0
- Rape plant response rating (rape; [8]): 6
- Giant foxtail plant response rating (giant foxtail; [1]): 9
- Giant foxtail plant response rating (giant foxtail; [9]): 9
- Giant foxtail plant response rating (giant foxtail; [2]): 10
- Plant response rating, Giant foxtail (giant foxtail; [10]): 10
- Plant response rating, Giant foxtail (giant foxtail; [11]): 10
- Giant foxtail plant response rating (giant foxtail; [5]): 10
- Giant foxtail plant response rating (giant foxtail; [6]): 9
- Giant foxtail plant response rating (giant foxtail; [8]): 9
- Nutsedge plant response rating (purple nutsedge; [1]): 7
- Nutsedge plant response rating (purple nutsedge; [9]): 7
- Nutsedge plant response rating (purple nutsedge; [2]): 0
- Plant response rating, Nutsedge (purple nutsedge; [10]): 0
- Plant response rating, Nutsedge (purple nutsedge; [11]): 3
- Nutsedge plant response rating (purple nutsedge; [5]): 7
- Nutsedge plant response rating (purple nutsedge; [6]): 2
- Nutsedge plant response rating (purple nutsedge; [8]): 7
- S. Flatsedge plant response rating (smallflower flatsedge; [17]): 0
- S. Flatsedge plant response rating (smallflower flatsedge; Pre-emergence, Rate 1000 g/ha, scale 0 to 10 (0 no effect, 10 complete control)): 0
- S. Flatsedge plant response rating (smallflower flatsedge; [18]): 0
- Plant response rating, S. Flatsedge (smallflower flatsedge; [19]): 0
- S. Flatsedge plant response rating (smallflower flatsedge; [13]): 0
- Plant response rating, S. Flatsedge (smallflower flatsedge; [14]): 0
- S. Flatsedge plant response rating (smallflower flatsedge; [15]): 0
- S. Flatsedge plant response rating (smallflower flatsedge; [20]): 4
- Bedstraw plant response rating (bedstraw; [12]): 0
- Bedstraw plant response rating (bedstraw; [9]): 2
- Bedstraw plant response rating (bedstraw; [2]): 0
- Plant response rating, Bedstraw (bedstraw; [10]): 0
- Plant response rating, Bedstraw (bedstraw; [11]): 0
- Bedstraw plant response rating (bedstraw; [5]): 0
- Bedstraw plant response rating (bedstraw; [21]): 0
- Rice plant response rating (rice; [17]): 0
- Rice plant response rating (rice; [18]): 0
- Plant response rating, Rice (rice; [19]): 0
- Rice plant response rating (rice; [13]): 0
- Plant response rating, Rice (rice; [14]): 0
- Rice plant response rating (rice; [15]): 0
- Rice plant response rating (rice; [16]): 0
- Rice plant response rating (rice; [20]): 0
- B. signalgrass plant response rating (surinam grass; [12]): 6
- B. signalgrass plant response rating (surinam grass; [9]): 9
- B. signalgrass plant response rating (surinam grass; [2]): 6
- Plant response rating, B. signalgrass (surinam grass; [10]): 9
- Plant response rating, B. signalgrass (surinam grass; [11]): 9
- B. signalgrass plant response rating (surinam grass; [5]): 10
- B. signalgrass plant response rating (surinam grass; [21]): 8
- B. signalgrass plant response rating (surinam grass; Rate 500 g/ha, Postemergence, scale of 0 to 10 where 0 is no effect and 10 is complete control): 9
- Redroot pigweed plant response rating (pigweed; [1]): 0
- Redroot pigweed plant response rating (pigweed; [2]): 9
- Plant response rating, Redroot pigweed (pigweed; [10]): 10
- Plant response rating, Redroot pigweed (pigweed; [11]): 10
- Redroot pigweed plant response rating (pigweed; [5]): 10
- Redroot pigweed plant response rating (pigweed; [6]): 0
- Plant response rating, Redroot pigweed (pigweed; Rate 250 g/ha, Postemergence, scale 0 to 10, 0 is no effect, 10 is complete control): 0
- Redroot pigweed plant response rating (pigweed; [8]): 6
- Corn plant response rating (corn; [1]): 5
- Corn plant response rating (corn; [9]): 6
- Corn plant response rating (corn; [2]): 0
- Plant response rating, Corn (corn; [10]): 2
- Plant response rating, Corn (corn; [11]): 7
- Corn plant response rating (corn; [5]): 9
- Corn plant response rating (corn; [6]): 0
- Corn plant response rating (corn; [8]): 7
- Sugarbeets plant response rating (sugar beet; [1]): 0
- Sugarbeets plant response rating (sugar beet; [2]): 0
- Sugarbeets plant response rating (0 to 10 scale) (sugar beet; [3]): 8
- Plant response rating, Sugarbeets (sugar beet; [4]): 9
- Sugarbeets plant response rating (sugar beet; [5]): 10
- Sugarbeets plant response rating (sugar beet; [6]): 0
- Plant response rating, Sugarbeets (sugar beet; [7]): 3
- Sugarbeets plant response rating (sugar beet; [8]): 7
- Blackgrass plant response rating (blackgrass; [1]): 9
- Blackgrass plant response rating (blackgrass; [9]): 9
- Blackgrass plant response rating (blackgrass; [2]): 8
- Plant response rating, Blackgrass (blackgrass; [10]): 8
- Plant response rating, Blackgrass (blackgrass; [11]): 10
- Blackgrass plant response rating (blackgrass; [5]): 10
- Blackgrass plant response rating (blackgrass; [6]): 8
- Blackgrass plant response rating (blackgrass; [8]): 9
- Wheat plant response rating (wheat; [1]): 6
- Wheat plant response rating (wheat; [2]): 2
- Wheat plant response rating (0 to 10 scale) (wheat; [3]): 4
- Plant response rating, Wheat (wheat; [4]): 7
- Wheat plant response rating (wheat; [5]): 8
- Wheat plant response rating (wheat; [6]): 2
- Plant response rating, Wheat (wheat; [7]): 6
- Wheat plant response rating (wheat; [8]): 8
